Measurements published in patent US9138494B2, “Radiolabeled PDE10A ligands” (AbbVie Inc., priority 2011, dated 2015).
Blank lines part the entries; values can stand above or below the compound they belong to.

Experiments:
[1] = Rat PK (0.05 mg/kg, iv), free brain concentration and free B/P; assay type: in vivo
[2] = log D determined by shake flask method; assay type: physicochemical; conditions: read-out: SF log D
Rat hepatocyte half-life = assay type: in vitro ADME; conditions: hepatocytes; rat (R); read-out: Hepatocyte T1/2
[3] = Human hepatocyte half-life; assay type: in vitro ADME; conditions: for half-life: hepatocytes, human (H), read-out: Hepatocyte T1/2
[4] = Monkey microsome half-life; assay type: in vitro ADME; conditions: monkey microsomes; read-out: Monkey Microsome T1/2
PDE10A = PDE10A (Homo sapiens, UniProt Q9Y233); experiment: PDE enzymatic inhibition assay (HTRF cAMP kit); assay type: biochemical; conditions: recombinant PDE10, 20 nM substrate, 60 minutes at 29° C.
Sequence of PDE10A (Q9Y233 whole entry, looked up): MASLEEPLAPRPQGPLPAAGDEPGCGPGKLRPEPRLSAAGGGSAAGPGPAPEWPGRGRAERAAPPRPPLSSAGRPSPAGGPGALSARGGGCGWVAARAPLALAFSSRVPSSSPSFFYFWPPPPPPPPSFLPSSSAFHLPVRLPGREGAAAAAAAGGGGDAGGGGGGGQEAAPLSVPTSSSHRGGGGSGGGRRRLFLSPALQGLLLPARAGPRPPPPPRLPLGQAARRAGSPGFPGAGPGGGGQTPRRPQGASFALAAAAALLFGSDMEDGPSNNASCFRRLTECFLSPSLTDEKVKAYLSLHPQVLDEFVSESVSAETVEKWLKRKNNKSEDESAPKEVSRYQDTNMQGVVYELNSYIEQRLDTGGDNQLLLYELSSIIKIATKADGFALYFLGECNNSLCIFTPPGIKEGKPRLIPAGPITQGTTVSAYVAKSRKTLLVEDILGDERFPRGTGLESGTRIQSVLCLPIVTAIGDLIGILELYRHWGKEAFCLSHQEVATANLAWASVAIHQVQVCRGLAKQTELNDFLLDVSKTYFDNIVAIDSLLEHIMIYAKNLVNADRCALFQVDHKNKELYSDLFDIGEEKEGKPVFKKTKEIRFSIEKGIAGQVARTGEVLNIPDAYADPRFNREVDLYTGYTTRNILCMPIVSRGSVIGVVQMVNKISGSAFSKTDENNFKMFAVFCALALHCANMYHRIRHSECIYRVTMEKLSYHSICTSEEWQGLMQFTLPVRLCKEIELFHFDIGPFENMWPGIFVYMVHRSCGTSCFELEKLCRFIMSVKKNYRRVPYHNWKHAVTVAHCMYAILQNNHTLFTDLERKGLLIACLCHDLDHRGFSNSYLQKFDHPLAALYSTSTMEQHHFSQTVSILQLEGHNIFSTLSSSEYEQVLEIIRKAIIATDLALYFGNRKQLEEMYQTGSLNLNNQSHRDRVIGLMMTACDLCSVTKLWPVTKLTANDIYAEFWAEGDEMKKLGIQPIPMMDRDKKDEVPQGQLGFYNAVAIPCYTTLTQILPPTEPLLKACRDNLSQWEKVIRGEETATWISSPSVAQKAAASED
Method: Recombinant PDE proteins were used in in vitro enzymatic reaction for measurement of PDE activity. […] The enzymatic activity of PDEs was determined by cAMP measurement kit from CisBio (IBA) using HTRF technology. The PDE enzymatic reaction was carried out in assay buffer (20 mM Tris-HCl pH7.5, 10 mM MgCl2, 0.1% bovine serum albumin) containing enzyme and substrate. The PDE enzymes concentration ranged from 10 pM-250 pM, depending on each enzyme's specific activity. […] The inhibitory effect of compound was determined by incubating various concentration of inhibitor in the enzymatic assay. […] Next, the compound at varying concentration was mixed with PDE enzyme. The reaction was initiated by addition of cyclic nucleotide substrate, and incubated for 60 minutes at 29° C. The reaction was stopped by addition of lysis buffer from assay kit. The cAMP-d2 and anti-cAMP cryptate in the lysis buffer detected the level of cAMP left from the PDE hydrolysis reaction. […] Thus, IC50 value of inhibitor can be obtained by plotting inhibitor concentration against PDE activity at that concentration.

P-gp = P-gp (Homo sapiens (Human), UniProt P08183); experiment: MDCK-MDR1 assay, Efflux Ratio (P-gp); assay type: in vitro ADME; conditions: dog; MDCK-MDR1 cells
Sequence of P-gp (P08183 whole entry): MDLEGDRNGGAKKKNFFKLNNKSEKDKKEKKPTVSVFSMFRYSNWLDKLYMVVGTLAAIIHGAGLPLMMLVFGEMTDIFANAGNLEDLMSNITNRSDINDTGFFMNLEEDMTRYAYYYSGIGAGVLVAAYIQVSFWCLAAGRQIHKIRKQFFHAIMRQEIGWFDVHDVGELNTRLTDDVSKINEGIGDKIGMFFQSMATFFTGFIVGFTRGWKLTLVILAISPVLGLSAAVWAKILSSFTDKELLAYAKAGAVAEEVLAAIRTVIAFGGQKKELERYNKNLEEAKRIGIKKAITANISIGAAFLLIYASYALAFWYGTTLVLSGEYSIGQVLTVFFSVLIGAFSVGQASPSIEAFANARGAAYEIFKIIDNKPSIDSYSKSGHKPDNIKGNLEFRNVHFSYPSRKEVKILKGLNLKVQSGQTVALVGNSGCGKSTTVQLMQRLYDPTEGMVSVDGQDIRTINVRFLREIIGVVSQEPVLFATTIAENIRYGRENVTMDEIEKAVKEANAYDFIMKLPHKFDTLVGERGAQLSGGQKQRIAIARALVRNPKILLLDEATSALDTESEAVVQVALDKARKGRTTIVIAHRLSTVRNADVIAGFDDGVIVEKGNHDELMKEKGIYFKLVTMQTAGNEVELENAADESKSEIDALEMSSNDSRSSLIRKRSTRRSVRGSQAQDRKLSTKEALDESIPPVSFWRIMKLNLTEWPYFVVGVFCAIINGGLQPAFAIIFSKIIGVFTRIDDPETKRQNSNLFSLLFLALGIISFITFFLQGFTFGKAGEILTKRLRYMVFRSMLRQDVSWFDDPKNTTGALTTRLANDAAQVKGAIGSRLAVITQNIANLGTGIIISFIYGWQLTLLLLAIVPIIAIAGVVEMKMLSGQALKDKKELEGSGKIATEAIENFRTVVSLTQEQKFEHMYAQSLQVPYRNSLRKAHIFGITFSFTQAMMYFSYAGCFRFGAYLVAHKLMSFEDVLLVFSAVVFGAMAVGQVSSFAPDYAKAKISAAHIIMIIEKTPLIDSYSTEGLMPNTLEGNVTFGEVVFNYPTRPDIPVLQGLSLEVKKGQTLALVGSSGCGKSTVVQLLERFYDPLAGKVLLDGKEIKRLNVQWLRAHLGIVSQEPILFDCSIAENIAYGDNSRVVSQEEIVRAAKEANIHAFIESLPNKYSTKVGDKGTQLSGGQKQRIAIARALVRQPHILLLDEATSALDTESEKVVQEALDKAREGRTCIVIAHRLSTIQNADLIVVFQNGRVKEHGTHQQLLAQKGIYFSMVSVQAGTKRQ

rats [5] = conditions: cited from earlier work
rats [6] = conditions: cited from earlier work; remark: listed apart in the source
rats [7] = conditions: cited from earlier work; remark: listed apart in the source

Free [brain] ([1]; 3 min after dose): 0.054 ng/g | Free [brain] ([1]; 5 min after dose): 0.098 ng/g | logD [2]: 4.28 | half-life (Rat hepatocyte half-life): 13 min | half-life [3]: 54.9 min | half-life [4]: 7 min
Compound: Cn1cc(-c2ccncc2)c(-c2ccc(OCc3ccc4ccccc4n3)cc2)n1 [MP-10, reference compound]

IC50 (PDE10A): 0.18 nM
Compound: FCCn1cc(-c2ccncc2)c(-c2ccc(OCc3ncc4ccccc4n3)cc2)n1 [Example 9, 2-((4-(1-(2-fluoroethyl)-4-(pyridin-4-yl)-1H-pyrazol-3-yl)phenoxy)methyl)quinazoline]

IC50 (PDE10A): 1.05 nM
Compound: Cn1cc(-c2ccncc2)c(-c2ccc(OCc3ccc4ncccc4n3)cc2)n1 [Example 1, 2-((4-(1-methyl-4-(pyridin-4-yl)-1H-pyrazol-3-yl)phenoxy)methyl)-1,5-naphthyridine]

Compound: FCCn1cc(-c2ccncc2)c(-c2ccc(OCc3ccc4ccccc4n3)cc2)n1 [JNJ-41510417, reference compound]
IC50 (PDE10A): 0.63 nM

IC50 (PDE10A): 0.2 nM | Free B/P (ratio of free brain concentration divided by free plasma concentration) ([1]; 3 min after dose): 0.20 | Free [brain] ([1]; 3 min after dose): 0.692 ng/g | Free B/P (ratio of free brain concentration divided by free plasma concentration) ([1]; 5 min after dose): 0.13 | Free [brain] ([1]; 5 min after dose): 0.184 ng/g | efflux ratio (P-gp): 1.95 | logD [2]: 3.71 | half-life (Rat hepatocyte half-life): 12 min | half-life [3]: 79 min | half-life [4]: 24 min
Compound: FCCn1cc(-c2ccncc2)c(-c2ccc(OCc3ccc4ncccc4n3)cc2)n1 [Example 2, 2-((4-(1-(2-fluoroethyl)-4-(pyridin-4-yl)-1H-pyrazol-3-yl)phenoxy)methyl)-1,5-naphthyridine]
human hepatocyte half-life compared with MP-10, JNJ-41510417 and Janssen B-3 ([3]; human Hepatocyte T1/2): significantly longer human hepatocyte half-lives

Compound: COc1ccc(Cc2nccc3cc(OC)c(OC)cc23)cc1OC [Papaverine, papaverine]
catalepsy on its own (rats [5]; alone): did not cause catalepsy on its own | effect on haloperidol-induced catalepsy (rats [5]; with haloperidol): potentiated the cataleptic effect | PCP-induced hyperactivity (rats [6]): reduced hyperactivity | reduction of amphetamine-induced hyperactivity (rats [7]): insignificant

IC50 (PDE10A): 4.7 nM
Compound: FCCn1cc(-c2ccncc2)c(-c2ccc(OCc3nc4ccccc4o3)cc2)n1 [Example 3, 2-((4-(1-(2-fluoroethyl)-4-(pyridin-4-yl)-1H-pyrazol-3-yl)phenoxy)methyl)benzo[d]oxazole]

Compound: Cc1cnc(COc2ccc(-c3nn(CCF)cc3-c3ccncc3)cc2)c(C)c1 [Janssen B-3, reference compound]
IC50 (PDE10A): 0.98 nM

IC50 (PDE10A): 2 nM
Compound: Cn1cc(-c2ccncc2)c(-c2ccc(OCc3nc4ccccc4c(=O)n3C)cc2)n1 [Example 4, 3-methyl-2-((4-(1-methyl-4-(pyridin-4-yl)-1H-pyrazol-3-yl)phenoxy)methyl)quinazolin-4(3H)-one]
